Structures are written as SMILES. Active and inactive are the calls of the source. The rule behind the calls is not given here.

The subject of one data set is HepG2. Put plainly: Induction of ROS generation in human HepG2 cells at 3.12 uM incubated for 4 hrs followed by exposure to laser irradiation of 808 nm for 2 mins by flow cytometry. The note with it: time 242.0 min. It counts as functional, cell-based. In general terms: A flow cytometer gives signals particle by particle.
`COCCOCCOCCN1/C(=C/C=C/C=C/C=C/C2=[N+](CCOCCOCCOC)c3ccccc3C2(C)C)C(C)(C)c2ccccc21.[I-]`: the Activity entry is listed as “Active; Exhibited Highest Activity Among Tested Compounds”.

Test system in the next data set: not listed separately
Put plainly: Photosensitizing property of compound assessed as generation of singlet-state oxygen by ESR spectrometry. It counts as functional.
Details: not given
With `CC1(C)C(/C=C/C=C/C=C/C=C2\N(CCCCS(=O)(=O)O)c3ccc4ccccc4c3C2(C)C)=[N+](CCCCS(=O)(=O)[O-])c2ccc3ccccc3c21`, the result was Active.

Consider `COCCOCCOCCN1/C(=C/C=C/C=C/C=C/C2=[N+](CCOCCOCCOC)c3ccccc3C2(C)C)C(C)(C)c2ccccc21.[I-]`, for which the outcome was Active.

For a further data set, the system named is 4T1. The experiment in a line: Induction of ROS generation in mouse 4T1 cells at 3.12 uM incubated for 4 hrs followed by exposure to laser irradiation of 808 nm for 2 mins by DCFH-DA probe based CLSM. It counts as functional, cell-based. The note with it: time 242.0 min.
In the case of `COCCOCCOCCN1/C(=C/C=C/C=C/C=C/C2=[N+](CCOCCOCCOC)c3ccccc3C2(C)C)C(C)(C)c2ccccc21.[I-]`, the Activity result was “Active; Exhibited Highest Activity Among Tested Compounds”.

The test system of a further data set is 4T1. The experiment in a line: Photothermal cytotoxicity against mouse 4T1 cells up to 25 uM preincubated for 4 hrs followed by exposure to laser irradiation of 808 nm for 2 mins and subsequent incubation for 20 hrs by MTT assay. It counts as functional, cell-based.
Details: not given
A general note: Tetrazolium dyes change colour on reduction, which living cells bring about.
Take `COCCOCCOCCN1/C(=C/C=C/C=C/C=C/C2=[N+](CCOCCOCCOC)c3ccccc3C2(C)C)C(C)(C)c2ccccc21.[I-]`: the Activity result is reported as “Active; Compound Was Less Photo-Thermally Effective But Showed Stronger Cell-Killing Ability”.

Test system in another data set: not listed separately
Put plainly: Drug uptake in human HepG2 cells assessed as increase in fluorescence intensity at 3.12 uM incubated for 4 hrs by CLSM. It counts as ADME, cell-based. The note with it: hepg2, 4 h.
As to `COCCOCCOCCN1/C(=C/C=C/C=C/C=C/C2=[N+](CCOCCOCCOC)c3ccccc3C2(C)C)C(C)(C)c2ccccc21.[I-]`, the Drug uptake entry is “Active”.

The next data set relates to Mitochondrial membrane. Put plainly: Inhibition of mitochondrial membrane potential in mouse 4T1 cells at 3.12 uM incubated for 24 hrs by Rh123 probe based CLSM. It counts as cell membranes.
Details: not given
Consider `COCCOCCOCCN1/C(=C/C=C/C=C/C=C/C2=[N+](CCOCCOCCOC)c3ccccc3C2(C)C)C(C)(C)c2ccccc21.[I-]`, for which the inhibition entry is “Active; Certain Degree Of Inhibition Was Observed”.

In the next data set the test system is Mitochondrial membrane. The experiment in a line: Inhibition of mitochondrial membrane potential in mouse 4T1 cells assessed as green fluorescence at 3.12 uM preincubated for 4 hrs followed by exposure to laser irradiation of 808 nm for 2 mins and subsequent incubation for 20 hrs by JC-1 dye based analysis. It counts as cell membranes. The note with it: time 1442.0 min.
`COCCOCCOCCN1/C(=C/C=C/C=C/C=C/C2=[N+](CCOCCOCCOC)c3ccccc3C2(C)C)C(C)(C)c2ccccc21.[I-]`: the inhibition entry was “Active”.

For the next data set, the system named is Mitochondrial membrane. The experiment in a line: Inhibition of mitochondrial membrane potential in human HepG2 cells at 3.12 uM incubated for 24 hrs by Rh123 probe based CLSM.
Details: not given
It counts as cell membranes.
Take `COCCOCCOCCN1/C(=C/C=C/C=C/C=C/C2=[N+](CCOCCOCCOC)c3ccccc3C2(C)C)C(C)(C)c2ccccc21.[I-]`: the inhibition result was “Active; Certain Degree Of Inhibition Was Observed”.

The test system of another data set is Mitochondrial membrane. The experiment in a line: Inhibition of mitochondrial membrane potential in human HepG2 cells at 3.12 uM incubated for 24 hrs by flow cytometry. It counts as cell membranes.
Details: not given
In the case of `COCCOCCOCCN1/C(=C/C=C/C=C/C=C/C2=[N+](CCOCCOCCOC)c3ccccc3C2(C)C)C(C)(C)c2ccccc21.[I-]`, the inhibition entry is “Active; Certain Degree Of Inhibition Was Observed”.

Another data set has as its system HepG2. The experiment in a line: Induction of ROS generation in human HepG2 cells at 3.12 uM incubated for 4 hrs followed by exposure to laser irradiation of 808 nm for 2 mins by DCFH-DA probe based CLSM. It counts as functional, cell-based. The note with it: time 242.0 min.
In the case of `COCCOCCOCCN1/C(=C/C=C/C=C/C=C/C2=[N+](CCOCCOCCOC)c3ccccc3C2(C)C)C(C)(C)c2ccccc21.[I-]`, the Activity entry is given as “Active; Exhibited Highest Activity Among Tested Compounds”.

Another data set deals with Mitochondrial membrane. The experiment in a line: Inhibition of mitochondrial membrane potential in mouse 4T1 cells at 3.12 uM preincubated for 4 hrs followed by exposure to laser irradiation of 808 nm for 2 mins and subsequent incubation for 20 hrs by Rh123 probe based CLSM. It counts as cell membranes. The note with it: time 1442.0 min.
For `COCCOCCOCCN1/C(=C/C=C/C=C/C=C/C2=[N+](CCOCCOCCOC)c3ccccc3C2(C)C)C(C)(C)c2ccccc21.[I-]`, the inhibition result is on record as “Active; Significant Inhibition Was Observed”.

In the next data set the test system is HepG2. The experiment in a line: Photothermal cytotoxicity against human HepG2 cells up to 25 uM preincubated for 4 hrs followed by exposure to laser irradiation of 808 nm for 2 mins and subsequent incubation for 20 hrs by MTT assay. The note with it: time 1442.0 min. It counts as functional, cell-based.
Take `COCCOCCOCCN1/C(=C/C=C/C=C/C=C/C2=[N+](CCOCCOCCOC)c3ccccc3C2(C)C)C(C)(C)c2ccccc21.[I-]`: the Activity entry was “Active; Compound Was Less Photo-Thermally Effective But Showed Stronger Cell-Killing Ability”.

Test system in a further data set: not listed separately
Put plainly: Drug uptake in human HepG2 cells assessed as increase in fluorescence intensity at 3.12 uM incubated for 4 hrs by flow cytometry. It counts as ADME, cell-based. The note with it: hepg2, 4 h.
For the compound `COCCOCCOCCN1/C(=C/C=C/C=C/C=C/C2=[N+](CCOCCOCCOC)c3ccccc3C2(C)C)C(C)(C)c2ccccc21.[I-]`, the Drug uptake entry was “Active”.

Test system in the next data set: not listed separately
Put plainly: Photothermal property of compound assessed as increase in photothermal conversion efficiency at 20 uM exposed to laser irradiation of 808 nm for 2 mins. It counts as functional.
Details: not given
For the compound `COCCOCCOCCN1/C(=C/C=C/C=C/C=C/C2=[N+](CCOCCOCCOC)c3ccccc3C2(C)C)C(C)(C)c2ccccc21.[I-]`, the Activity was found to be 5.2%.

For the next data set, the system named is Mitochondrial membrane. The experiment in a line: Inhibition of mitochondrial membrane potential in human HepG2 cells at 3.12 uM preincubated for 4 hrs followed by exposure to laser irradiation of 808 nm for 2 mins and subsequent incubation for 20 hrs by Rh123 probe based CLSM. The note with it: time 1442.0 min. It counts as cell membranes.
In the case of `COCCOCCOCCN1/C(=C/C=C/C=C/C=C/C2=[N+](CCOCCOCCOC)c3ccccc3C2(C)C)C(C)(C)c2ccccc21.[I-]`, the inhibition entry was “Active; Significant Inhibition Was Observed”.

Test system in a further data set: not listed separately
Put plainly: Drug uptake in mouse 4T1 cells assessed as increase in fluorescence intensity at 3.12 uM incubated for 4 hrs by flow cytometry. It counts as ADME, cell-based. The note with it: 4t1, 4 h.
Take `COCCOCCOCCN1/C(=C/C=C/C=C/C=C/C2=[N+](CCOCCOCCOC)c3ccccc3C2(C)C)C(C)(C)c2ccccc21.[I-]`: the Drug uptake entry was “Active”.

For another data set, the system named is Mitochondrial membrane. The experiment in a line: Inhibition of mitochondrial membrane potential in mouse 4T1 cells at 3.12 uM preincubated for 4 hrs followed by exposure to laser irradiation of 808 nm for 2 mins and subsequent incubation for 20 hrs by flow cytometry. The note with it: time 1442.0 min. It counts as cell membranes.
For the compound `COCCOCCOCCN1/C(=C/C=C/C=C/C=C/C2=[N+](CCOCCOCCOC)c3ccccc3C2(C)C)C(C)(C)c2ccccc21.[I-]`, the inhibition result is listed as “Active; Significant Inhibition Was Observed”.

The next data set relates to HepG2. The experiment in a line: Induction of apoptosis in human HepG2 cells at 3.12 uM incubated for 4 hrs followed by exposure to laser irradiation of 808 nm for 2 mins by Annexin V-FITC/PI staining based flow cytometry. It counts as functional, cell-based. The note with it: time 242.0 min.
As for `COCCOCCOCCN1/C(=C/C=C/C=C/C=C/C2=[N+](CCOCCOCCOC)c3ccccc3C2(C)C)C(C)(C)c2ccccc21.[I-]`, the result was Active.

Test system in another data set: not listed separately
Put plainly: Drug uptake in mouse 4T1 cells assessed as increase in fluorescence intensity at 3.12 uM incubated for 4 hrs by CLSM. The note with it: 4t1, 4 h. It counts as ADME, cell-based.
Take `COCCOCCOCCN1/C(=C/C=C/C=C/C=C/C2=[N+](CCOCCOCCOC)c3ccccc3C2(C)C)C(C)(C)c2ccccc21.[I-]`: the Drug uptake result is listed as “Active”.

The next data set has as its system Mitochondrial membrane. Put plainly: Inhibition of mitochondrial membrane potential in human HepG2 cells at 3.12 uM preincubated for 4 hrs followed by exposure to laser irradiation of 808 nm for 2 mins and subsequent incubation for 20 hrs by flow cytometry. The note with it: time 1442.0 min. It counts as cell membranes.
Regarding `COCCOCCOCCN1/C(=C/C=C/C=C/C=C/C2=[N+](CCOCCOCCOC)c3ccccc3C2(C)C)C(C)(C)c2ccccc21.[I-]`, the inhibition result is recorded as “Active; Significant Inhibition Was Observed”.

The subject of the next data set is Mitochondrial membrane. Put plainly: Inhibition of mitochondrial membrane potential in mouse 4T1 cells at 3.12 uM incubated for 24 hrs by flow cytometry. It counts as cell membranes.
Details: not given
`COCCOCCOCCN1/C(=C/C=C/C=C/C=C/C2=[N+](CCOCCOCCOC)c3ccccc3C2(C)C)C(C)(C)c2ccccc21.[I-]`: the inhibition entry is on record as “Active; Certain Degree Of Inhibition Was Observed”.

Test system in another data set: not listed separately
The experiment in a line: Photothermal stability of compound at 60 degreeC at 20 uM exposed to laser irradiation of 808 nm for 2.5 mins. It counts as physicochemical.
Details: not given
`COCCOCCOCCN1/C(=C/C=C/C=C/C=C/C2=[N+](CCOCCOCCOC)c3ccccc3C2(C)C)C(C)(C)c2ccccc21.[I-]`: the Stability result was “Unstable”.

A further data set has as its system Mitochondrial membrane. Put plainly: Inhibition of mitochondrial membrane potential in human HepG2 cells assessed as green fluorescence at 3.12 uM preincubated for 4 hrs followed by exposure to laser irradiation of 808 nm for 2 mins and subsequent incubation for 20 hrs by JC-1 dye based analysis. It counts as cell membranes. The note with it: time 1442.0 min.
For `COCCOCCOCCN1/C(=C/C=C/C=C/C=C/C2=[N+](CCOCCOCCOC)c3ccccc3C2(C)C)C(C)(C)c2ccccc21.[I-]`, the inhibition result is “Active”.

Another data set deals with 4T1. The experiment in a line: Induction of apoptosis in mouse 4T1 cells at 3.12 uM incubated for 4 hrs followed by exposure to laser irradiation of 808 nm for 2 mins by Annexin V-FITC/PI staining based flow cytometry. It counts as functional, cell-based. The note with it: time 242.0 min.
With `COCCOCCOCCN1/C(=C/C=C/C=C/C=C/C2=[N+](CCOCCOCCOC)c3ccccc3C2(C)C)C(C)(C)c2ccccc21.[I-]`, the outcome was Active.

Test system in another data set: not listed separately
The experiment in a line: Photosensitizing property of compound assessed as generation of singlet-state oxygen at 10 uM exposed to laser irradiation of 808 nm for 2 mins by SOSG probe based analysis. It counts as functional.
Details: not given
Take `CC1(C)C(/C=C/C=C/C=C/C=C2\N(CCCCS(=O)(=O)O)c3ccc4ccccc4c3C2(C)C)=[N+](CCCCS(=O)(=O)[O-])c2ccc3ccccc3c21`: the result was inactive.

Turning to `COCCOCCOCCN1/C(=C/C=C/C=C/C=C/C2=[N+](CCOCCOCCOC)c3ccccc3C2(C)C)C(C)(C)c2ccccc21.[I-]`, the result was Active.

In a further data set the test system is 4T1. The experiment in a line: Induction of ROS generation in mouse 4T1 cells at 3.12 uM incubated for 4 hrs followed by exposure to laser irradiation of 808 nm for 2 mins by flow cytometry. The note with it: time 242.0 min. It counts as functional, cell-based.
For `COCCOCCOCCN1/C(=C/C=C/C=C/C=C/C2=[N+](CCOCCOCCOC)c3ccccc3C2(C)C)C(C)(C)c2ccccc21.[I-]`, the Activity result was “Active; Exhibited Highest Activity Among Tested Compounds”.
